Our source for the IC50 values is patent US8129371B2, “Thienopyrimidine and pyrazolopyrimidine compounds and their use as mTOR kinase and PI3 kinase inhibitors” (Wyeth LLC, priority 2007, dated 2012).

Each structure is given as a SMILES string. Where two headings read alike, the source gives them in different places.

The target in experiment [1] is T1, Human mTOR (FLAG-TOR) (Homo sapiens, UniProt P42345).
T1 construct: FLAG
The experiment in a line: Human mTOR kinase assay with purified enzyme, DELFIA format. Format: biochemical. The procedure, abridged: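 DELFIA readout: Eu-anti-P(T389)-S6K antibody (40 ng/mL, 1 h) on captured His6-S6K from the stopped reaction. Kinase step used purified FLAG-tagged human mTOR with test compound in HEPES (pH 7.4)/MnCl2/DTT buffer, 2 h at room temperature (linear 1–6 h), terminated by EDTA/EGTA.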

The target of experiment [2] is T2, PI3K (Homo sapiens, UniProt P42336).
T2 construct: PI3 Kinase α IC50; other: PI3 Kinase α; other: PI3 Kinase α isoform, fluorescence polarization
T2 sequence (P42336 whole entry, canonical isoform): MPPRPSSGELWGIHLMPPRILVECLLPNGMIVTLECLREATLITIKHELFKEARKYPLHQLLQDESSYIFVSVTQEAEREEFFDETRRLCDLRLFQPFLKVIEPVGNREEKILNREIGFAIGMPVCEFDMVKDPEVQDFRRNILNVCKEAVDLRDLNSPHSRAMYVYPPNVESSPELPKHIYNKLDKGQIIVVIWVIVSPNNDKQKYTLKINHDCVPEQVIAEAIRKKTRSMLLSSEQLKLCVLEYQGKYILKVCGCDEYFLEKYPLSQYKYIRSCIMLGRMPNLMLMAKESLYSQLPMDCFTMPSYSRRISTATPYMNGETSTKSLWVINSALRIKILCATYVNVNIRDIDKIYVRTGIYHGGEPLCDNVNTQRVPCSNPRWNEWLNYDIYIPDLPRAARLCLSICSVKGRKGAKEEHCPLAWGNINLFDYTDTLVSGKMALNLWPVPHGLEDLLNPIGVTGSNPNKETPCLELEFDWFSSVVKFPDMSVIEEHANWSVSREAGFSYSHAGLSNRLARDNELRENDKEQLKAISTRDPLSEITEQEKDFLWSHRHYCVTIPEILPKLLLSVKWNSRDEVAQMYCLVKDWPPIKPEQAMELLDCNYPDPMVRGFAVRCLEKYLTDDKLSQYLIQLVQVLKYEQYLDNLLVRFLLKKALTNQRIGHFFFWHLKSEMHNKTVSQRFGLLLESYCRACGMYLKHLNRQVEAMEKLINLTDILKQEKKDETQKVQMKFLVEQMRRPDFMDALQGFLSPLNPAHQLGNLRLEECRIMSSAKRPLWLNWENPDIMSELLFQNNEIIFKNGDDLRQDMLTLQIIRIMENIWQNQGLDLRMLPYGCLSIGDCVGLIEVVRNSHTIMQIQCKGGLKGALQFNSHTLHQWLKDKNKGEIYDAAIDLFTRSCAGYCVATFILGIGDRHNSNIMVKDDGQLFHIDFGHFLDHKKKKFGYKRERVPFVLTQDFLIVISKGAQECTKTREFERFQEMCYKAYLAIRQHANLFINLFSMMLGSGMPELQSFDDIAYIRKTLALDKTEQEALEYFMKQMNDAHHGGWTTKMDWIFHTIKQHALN
The experiment is described as follows: Fluorescence polarization assay for PI3K. Format: biochemical. The following applies: read-out: PI3 Kinase α IC50. The procedure, abridged:
(§1)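 Fluorescence-polarization competition readout: after 30–60 min of PIP2/ATP turnover in 1% DMSO, a stop mix with GST-GRP (70 nM) and red probe (10 nM) was added.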

The target in experiment [3] is T3, PI3K (Homo sapiens, UniProt P48736).
T3 construct: PI3 Kinase γ IC50; other: PI3 Kinase γ; other: PI3 Kinase γ isoform, fluorescence polarization
T3 sequence (P48736 whole entry, canonical isoform): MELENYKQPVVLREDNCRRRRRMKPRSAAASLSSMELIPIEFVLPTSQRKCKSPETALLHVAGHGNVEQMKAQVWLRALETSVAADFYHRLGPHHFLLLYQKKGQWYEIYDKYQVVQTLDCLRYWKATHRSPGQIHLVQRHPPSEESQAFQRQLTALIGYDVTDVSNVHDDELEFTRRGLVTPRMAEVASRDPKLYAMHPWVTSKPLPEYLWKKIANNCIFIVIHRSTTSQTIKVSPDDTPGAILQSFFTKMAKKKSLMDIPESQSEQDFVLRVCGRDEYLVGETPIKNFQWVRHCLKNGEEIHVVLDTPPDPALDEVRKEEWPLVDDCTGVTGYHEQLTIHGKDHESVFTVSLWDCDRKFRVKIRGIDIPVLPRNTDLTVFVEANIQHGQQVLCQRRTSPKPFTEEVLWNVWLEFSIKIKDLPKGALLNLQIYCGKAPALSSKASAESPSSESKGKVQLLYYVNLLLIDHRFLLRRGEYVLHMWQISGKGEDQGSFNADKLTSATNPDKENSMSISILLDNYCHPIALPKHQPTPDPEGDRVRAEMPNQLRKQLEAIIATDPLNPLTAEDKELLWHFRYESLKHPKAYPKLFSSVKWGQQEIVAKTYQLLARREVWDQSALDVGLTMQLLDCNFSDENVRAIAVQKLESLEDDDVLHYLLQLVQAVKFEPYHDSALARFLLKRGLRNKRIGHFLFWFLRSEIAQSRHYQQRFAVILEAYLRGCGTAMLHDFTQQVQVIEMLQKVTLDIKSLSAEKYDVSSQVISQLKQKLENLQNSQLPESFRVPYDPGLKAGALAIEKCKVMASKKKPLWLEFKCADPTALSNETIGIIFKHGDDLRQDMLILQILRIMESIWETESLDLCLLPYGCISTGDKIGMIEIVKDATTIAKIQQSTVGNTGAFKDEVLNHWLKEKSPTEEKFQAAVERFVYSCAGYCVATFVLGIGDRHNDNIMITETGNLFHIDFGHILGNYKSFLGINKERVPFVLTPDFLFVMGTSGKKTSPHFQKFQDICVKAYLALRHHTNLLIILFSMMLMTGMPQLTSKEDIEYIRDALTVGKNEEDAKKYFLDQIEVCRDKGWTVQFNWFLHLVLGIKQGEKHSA
The experiment is described as follows: Fluorescence polarization assay for PI3K. Format: biochemical. Conditions: read-out: PI3 Kinase γ IC50. The essentials: as §1

Experiment [4] deals with prostate line LNCap. The experiment in a line: In vitro cell culture growth assay (MTS), LNCap. Format: cell-based. The following applies: Homo sapiens, LNCaP, 72 h, LNCap cells, three days after drug treatment. The procedure, abridged: (§2)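 Plate cells; add inhibitors on day 1; after 3 days' treatment, add MTS; read A490; express as percent growth of vehicle-treated control.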

The subject of experiment [5] is breast line MDA468. The experiment is described as follows: In vitro cell culture growth assay (MTS), MDA468. It counts as cell-based. The following applies: Homo sapiens, 72 h, MDA468 cells, three days after drug treatment. The essentials:
as §2

[6] abbreviates: purified human mTOR enzyme, DELFIA format.
[7] abbreviates: PI3 Kinase α isoform, fluorescence polarization.
Where [8] appears, read: PI3 Kinase γ isoform, fluorescence polarization.

The term IC50 denotes the midpoint of a concentration-inhibition curve. For the compound `CNC(=O)Nc1ccc(-c2nc(N3CC4CCC(C3)O4)c3cnn([C@H]4CC[C@H](OC)CC4)c3n2)cc1` (relative stereo) [Example 386, 1-{4-[1-(trans-4-methoxycyclohexyl)-4-(8-oxa-3-azabicyclo[3.2.1]oct-3-yl)-1H-pyrazolo[3,4-d]pyrimidin-6-yl]phenyl}-3-methylurea], the IC50 in experiment [1] (setting [6]) was 0.375 nM; in experiment [2] (setting [7]) it was 1170 nM; in experiment [3] (setting [8]), 7440 nM; in experiment [4], 2 nM; in experiment [5] it was 37 nM.

Regarding `CCn1ncc2c(N3CC4CCC(C3)O4)nc(-c3ccc(NC(=O)NCCN)cc3)nc21` [Example 173, 1-(2-aminoethyl)-3-{4-[1-ethyl-4-(8-oxa-3-azabicyclo[3.2.1]oct-3-yl)-1H-pyrazolo[3,4-d]pyrimidin-6-yl]phenyl}urea], the IC50 in experiment [1] is 2.25 nM; in experiment [2] (PI3 Kinase α), 270 nM; in experiment [3] (PI3 Kinase γ), 3130 nM; in experiment [4] it was 270 nM; in experiment [5], 650 nM.

Take `COC(=O)Nc1ccc(-c2nc(N3CC4CCC(C3)O4)c3cnn(CCO)c3n2)cc1` [Example 192, methyl {4-[1-(2-hydroxyethyl)-4-(8-oxa-3-azabicyclo[3.2.1]oct-3-yl)-1H-pyrazolo[3,4-d]pyrimidin-6-yl]phenyl}carbamate]: the IC50 was 26 nM in experiment [1]; 2100 nM in experiment [2] (PI3 Kinase α); > 10000 nM in experiment [3] (PI3 Kinase γ); 1020 nM in experiment [4]; 5000 nM in experiment [5].

For `CCn1ncc2c(N3CC4CCC(C3)O4)nc(-c3ccc(NC(=O)Nc4ccc(N5CCNCC5)cc4)cc3)nc21` [Example 288, 1-{4-[1-ethyl-4-(8-oxa-3-azabicyclo[3.2.1]oct-3-yl)-1H-pyrazolo[3,4-d]pyrimidin-6-yl]phenyl}-3-(4-piperazin-1-ylphenyl)urea], the IC50 in experiment [1] is 0.575 nM; in experiment [2] (PI3 Kinase α) it was 53 nM; in experiment [3] (PI3 Kinase γ), 534 nM; in experiment [4] it was < 1 nM; in experiment [5] it was 50 nM.

Take `COC(=O)N1CCC(n2ncc3c(N4CC5CCC(C4)O5)nc(-c4ccc(NC(=O)Nc5cccc(CO)c5)cc4)nc32)CC1` [Example 171, methyl 4-{6-[4-({[3-(hydroxymethyl)phenyl]carbamoyl}amino)phenyl]-4-(8-oxa-3-azabicyclo[3.2.1]oct-3-yl)-1H-pyrazolo[3,4-d]pyrimidin-1-yl}piperidine-1-carboxylate]: the IC50 in experiment [1] was found to be 0.215 nM; in experiment [2] (PI3 Kinase α) it was 54 nM; in experiment [3] (PI3 Kinase γ) it was 1830 nM; in experiment [4], 5 nM; in experiment [5], 8 nM.

With `O=C(Nc1ccc(-c2nc(N3CC4CCC(C3)O4)c3cnn(C4CCN(CC(F)(F)F)CC4)c3n2)cc1)NC1CC1` [Example 265, 1-cyclopropyl-3-(4-{4-(8-oxa-3-azabicyclo[3.2.1]oct-3-yl)-1-[1-(2,2,2-trifluoroethyl)piperidin-4-yl]-1H-pyrazolo[3,4-d]pyrimidin-6-yl}phenyl)urea], the IC50 in experiment [1] is 1.2 nM; in experiment [2] (PI3 Kinase α), 3470 nM; in experiment [3] (PI3 Kinase γ), > 10000 nM; in experiment [4], 18 nM; in experiment [5] it was 700 nM.

Take `CNC(=O)Nc1ccc(-c2nc(N3CC4CCC(C3)O4)c3cnn(C4CCN(C(=O)OC)CC4)c3n2)cc1` [Example 7, methyl 4-[6-{4-[(methylcarbamoyl)amino]phenyl}-4-(8-oxa-3-azabicyclo[3.2.1]oct-3-yl)-1H-pyrazolo[3,4-d]pyrimidin-1-yl]piperidine-1-carboxylate]: the IC50 in experiment [1] is 0.21 nM; in experiment [2] (PI3 Kinase α), 1800 nM; in experiment [3] (PI3 Kinase γ), > 10000 nM; in experiment [4], 26 nM; in experiment [5], 80 nM.

Take `CCn1nc(-c2cccnc2)c2c(N3CC4CCC(C3)O4)nc(-c3ccc(NC(=O)NC)cc3)nc21` [Example 349, 1-{4-[1-ethyl-4-(8-oxa-3-azabicyclo[3.2.1]oct-3-yl)-3-pyridin-3-yl-1H-pyrazolo[3,4-d]pyrimidin-6-yl]phenyl}-3-methylurea]: the IC50 came out at 8.9 nM in experiment [1] (setting [6]); 596 nM in experiment [2] (setting [7]); 4960 nM in experiment [3] (setting [8]); 210 nM in experiment [4]; 800 nM in experiment [5].
